Experimental data: PubChem BioAssay AID330 (DTP/NCI, 2004)
Several values for one entry are separate records, joined by “and”; a condition that tells them apart may be missing. Equal values may be shown once. Toxic doses and inconclusive results are not listed.

System: P388 leukemia ip, CD2F1 mice, survival T/C
Experiment: NCI In Vivo Anticancer Drug Screen. Data for tumor model P388 Leukemia (intraperitoneal) in CD2F1 (CDF1) mice
Conditions: endpoint: median survival time, higher = longer survival
Outline: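 Mice carrying the transplanted tumor received test compound or vehicle. Survival was recorded in each group, and the value is the treated-group measurement divided by that of the vehicle-treated control group.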

[1] = dose: 100.0 mg/kg/injection, schedule: Q04DX002 (ip), vehicle: saline with Tween-80
[2] = dose: 200.0 mg/kg/injection, schedule: Q04DX002 (ip), vehicle: saline with Tween-80
[3] = dose: 100.0 mg/kg/injection, schedule: Q01DX009 (ip), vehicle: saline
[4] = dose: 50.0 mg/kg/injection, schedule: Q01DX009 (ip), vehicle: Klucel (hydroxypropylcellulose) (HPC)
[5] = dose: 100.0 mg/kg/injection, schedule: Q01DX009 (ip), vehicle: Klucel (hydroxypropylcellulose) (HPC)
[6] = dose: 200.0 mg/kg/injection, schedule: Q01DX009 (ip), vehicle: Klucel (hydroxypropylcellulose) (HPC)
[7] = dose: 60.0 mg/kg/injection, schedule: Q01DX005 (ip), vehicle: saline with Tween-80
[8] = dose: 240.0 mg/kg/injection, schedule: Q01DX005 (ip), vehicle: saline with Tween-80
[9] = dose: 120.0 mg/kg/injection, schedule: Q01DX005 (ip), vehicle: saline with Tween-80
[10] = dose: 50.0 mg/kg/injection, schedule: Q01DX005 (ip), vehicle: Klucel (hydroxypropylcellulose) (HPC)
[11] = dose: 100.0 mg/kg/injection, schedule: Q01DX005 (ip), vehicle: Klucel (hydroxypropylcellulose) (HPC)
[12] = dose: 200.0 mg/kg/injection, schedule: Q01DX005 (ip), vehicle: Klucel (hydroxypropylcellulose) (HPC)

## CC12Cc3cn[nH]c3CC1CCC1C2CCC2(C)C1CCC2(C)O (stereo not drawn)
dose: 100.0 mg/kg/injection, schedule: Q04DX002 (ip), vehicle: saline
  T/C: 98 % of control
dose: 200.0 mg/kg/injection, schedule: Q04DX002 (ip), vehicle: saline
  T/C: 100 % of control
dose: 400.0 mg/kg/injection, schedule: Q04DX002 (ip), vehicle: saline
  T/C: 97 % of control

## O=C(NC(=O)c1c(F)cccc1F)Nc1ccc(Cl)cn1
dose: 50.0 mg/kg/injection, schedule: Q04DX002 (ip), vehicle: saline with Tween-80
  T/C: 95 % of control
[1]
  T/C: 100 % of control
[2]
  T/C: 98 % of control

## CC(=O)OC/C(C)=N\NS(=O)(=O)c1cc(Cl)c(Cl)cc1Cl
dose: 50.0 mg/kg/injection, schedule: Q01DX009 (ip), vehicle: saline
  T/C: 99 % of control
[3]
  T/C: 86 % of control

## CCCC(C)C1(CC(C)O)C(=O)NC(=O)NC1=O (stereo not drawn)
[4]
  T/C: 104 % of control
[5]
  T/C: 104 % of control
[6]
  T/C: 100 % of control

## C=C1C(=O)OC2CC(C)(O)C(O)CC3OC3(C)CC(OC(=O)/C(C)=C/C)C12 (stereo not drawn)
dose: 1.25 mg/kg/injection, schedule: Q01DX005 (ip), vehicle: Klucel (hydroxypropylcellulose) (HPC)
  T/C: 99 % of control
dose: 2.5 mg/kg/injection, schedule: Q01DX005 (ip), vehicle: Klucel (hydroxypropylcellulose) (HPC)
  T/C: 101 % of control
dose: 5.0 mg/kg/injection, schedule: Q01DX005 (ip), vehicle: Klucel (hydroxypropylcellulose) (HPC)
  T/C: 108 % of control
dose: 10.0 mg/kg/injection, schedule: Q01DX005 (ip), vehicle: Klucel (hydroxypropylcellulose) (HPC)
  T/C: 110 % of control

## O=[N+]([O-])c1cc(C(Nc2nncs2)Nc2nncs2)ccc1Cl
dose: 30.0 mg/kg/injection, schedule: Q01DX005 (ip), vehicle: saline with Tween-80
  T/C: 91 % of control
[7]
  T/C: 109 % of control and 87 % of control
[8]
  T/C: 150 % of control

## O=C1OC(=O)C2CC3OC3CC12 (stereo not drawn)
dose: 12.5 mg/kg/injection, schedule: Q01DX001 (ip), vehicle: saline
  T/C: 104 % of control
dose: 25.0 mg/kg/injection, schedule: Q01DX001 (ip), vehicle: saline
  T/C: 109 % of control
dose: 50.0 mg/kg/injection, schedule: Q01DX001 (ip), vehicle: saline
  T/C: 100 % of control

## O=C(CCN1C(=O)c2ccccc2C1=O)Nc1ncc[nH]1
dose: 8.75 mg/kg/injection, schedule: Q01DX005 (ip), vehicle: Klucel (hydroxypropylcellulose) (HPC)
  T/C: 98 % of control
dose: 17.5 mg/kg/injection, schedule: Q01DX005 (ip), vehicle: Klucel (hydroxypropylcellulose) (HPC)
  T/C: 98 % of control
dose: 35.0 mg/kg/injection, schedule: Q01DX005 (ip), vehicle: Klucel (hydroxypropylcellulose) (HPC)
  T/C: 96 % of control

## COCCCn1nnc2ccccc2c1=O
dose: 25.0 mg/kg/injection, schedule: Q01DX009 (ip), vehicle: other
  T/C: 105 % of control
dose: 50.0 mg/kg/injection, schedule: Q01DX009 (ip), vehicle: other
  T/C: 100 % of control
dose: 100.0 mg/kg/injection, schedule: Q01DX009 (ip), vehicle: other
  T/C: 104 % of control
dose: 200.0 mg/kg/injection, schedule: Q01DX009 (ip), vehicle: other
  T/C: 106 % of control

## CCN(CC)CCOC(=O)Nc1cc(C(F)(F)F)ccc1Cl
[7]
  T/C: 111 % of control
[9]
  T/C: 109 % of control
[8]
  T/C: 90 % of control

## CCOC(=O)CCC(=O)N(CCCNc1c2ccccc2nc2c(OC)cccc12)CCCNc1c2ccccc2nc2c(OC)cccc12
dose: 1.25 mg/kg/injection, schedule: Q01DX009 (ip), vehicle: water
  T/C: 111 % of control
dose: 2.5 mg/kg/injection, schedule: Q01DX009 (ip), vehicle: water
  T/C: 116 % of control
dose: 20.0 mg/kg/injection, schedule: Q01DX009 (ip), vehicle: water
  T/C: 97 % of control

## O=C(CSC(c1ccccc1)(c1ccccc1)c1ccccc1)c1ccc([N+](=O)[O-])cc1
[10]
  T/C: 100 % of control
[11]
  T/C: 105 % of control
[12]
  T/C: 95 % of control

## CC(=O)Oc1cc(C)c(OC(C)=O)c(OC(C)=O)c1C
dose: 100.0 mg/kg/injection, schedule: Q04DX002 (ip), vehicle: Klucel (hydroxypropylcellulose) (HPC)
  T/C: 102 % of control
dose: 200.0 mg/kg/injection, schedule: Q04DX002 (ip), vehicle: Klucel (hydroxypropylcellulose) (HPC)
  T/C: 90 % of control

## O=C(NCN1CCOCC1)c1ccccc1O
[1]
  T/C: 98 % of control
[2]
  T/C: 104 % of control

## CCN(CC)c1ccc(NC(=S)NN)cc1
dose: 60.0 mg/kg/injection, schedule: Q01DX005 (ip), vehicle: Klucel (hydroxypropylcellulose) (HPC)
  T/C: 100 % of control
dose: 120.0 mg/kg/injection, schedule: Q01DX005 (ip), vehicle: Klucel (hydroxypropylcellulose) (HPC)
  T/C: 97 % of control

## CCCCCCCNC1CCCc2cc(OC)ccc21 (stereo not drawn)
dose: 50.0 mg/kg/injection, schedule: Q04DX003 (ip), vehicle: saline
  T/C: 113 % of control
dose: 100.0 mg/kg/injection, schedule: Q04DX003 (ip), vehicle: saline
  T/C: 99 % of control

## O=C(Cc1nc2ccccc2[nH]c1=O)N/N=C/c1ccc2c(c1)CCC2
[7]
  T/C: 92 % of control and 95 % of control
[9]
  T/C: 100 % of control
[8]
  T/C: 89 % of control

## COC(=O)CC(=O)c1ccc(OCCOc2ccc(C(C)(C)CC(C)(C)C)cc2)c([N+](=O)[O-])c1
dose: 50.0 mg/kg/injection, schedule: Q04DX003 (ip), vehicle: saline sonified
  T/C: 100 % of control
dose: 100.0 mg/kg/injection, schedule: Q04DX003 (ip), vehicle: saline sonified
  T/C: 100 % of control
dose: 200.0 mg/kg/injection, schedule: Q04DX003 (ip), vehicle: saline sonified
  T/C: 104 % of control

## CCCCOCCOS(=O)(=O)c1ccc(C)cc1
dose: 50.0 mg/kg/injection, schedule: Q01DX009 (ip), vehicle: saline with Tween-80
  T/C: 92 % of control
dose: 100.0 mg/kg/injection, schedule: Q01DX009 (ip), vehicle: saline with Tween-80
  T/C: 96 % of control
dose: 200.0 mg/kg/injection, schedule: Q01DX009 (ip), vehicle: saline with Tween-80
  T/C: 106 % of control

## COc1ccc(/C=C/C(=O)c2ccccc(=O)c2O)c(OC)c1
dose: 25.0 mg/kg/injection, schedule: Q01DX005 (ip), vehicle: Klucel (hydroxypropylcellulose) (HPC)
  T/C: 101 % of control
[10]
  T/C: 98 % of control
[11]
  T/C: 105 % of control
[12]
  T/C: 104 % of control

## OCC1(O)OCC(O)C(O)C1O (stereo not drawn)
[3]
  T/C: 99 % of control
dose: 200.0 mg/kg/injection, schedule: Q01DX009 (ip), vehicle: saline
  T/C: 98 % of control
dose: 400.0 mg/kg/injection, schedule: Q01DX009 (ip), vehicle: saline
  T/C: 105 % of control

## Cc1cc2nc(CC(=O)c3ccccc3)c(=O)[nH]c2cc1C
[7]
  T/C: 90 % of control
[9]
  T/C: 90 % of control
[8]
  T/C: 87 % of control

## COC1CCCC=C1[N+](=O)[O-] (stereo not drawn)
dose: 6.25 mg/kg/injection, schedule: Q01DX005 (ip), vehicle: saline
  T/C: 108 % of control
dose: 12.5 mg/kg/injection, schedule: Q01DX005 (ip), vehicle: saline
  T/C: 116 % of control
dose: 25.0 mg/kg/injection, schedule: Q01DX005 (ip), vehicle: saline
  T/C: 115 % of control

## CS(=O)(=O)Nc1cc(C(O)CNC2CC2)ccc1O (stereo not drawn)
dose: 0.37 mg/kg/injection, schedule: Q01DX001 (ip), vehicle: saline
  T/C: 96 % of control
dose: 0.75 mg/kg/injection, schedule: Q01DX001 (ip), vehicle: saline
  T/C: 98 % of control
dose: 1.5 mg/kg/injection, schedule: Q01DX001 (ip), vehicle: saline
  T/C: 100 % of control and 95 % of control

## O=[N+]([O-])c1ccccc1N(CCO)CCO
[7]
  T/C: 96 % of control
[9]
  T/C: 99 % of control
[8]
  T/C: 98 % of control

## CC(=O)Oc1cc(C)cc2ccc(-c3ccc4cc(C)cc(OC(C)=O)c4c3OC(C)=O)c(OC(C)=O)c12
[4]
  T/C: 96 % of control
[5]
  T/C: 96 % of control
[6]
  T/C: 96 % of control

## CC(/C=N/Nc1ccccc1)=N\N=c1/scc(-c2ccc(Br)cc2)n1-c1ccc(Cl)cc1
dose: 12.5 mg/kg/injection, schedule: Q01DX001 (ip), vehicle: saline with Tween-80
  T/C: 98 % of control
dose: 25.0 mg/kg/injection, schedule: Q01DX001 (ip), vehicle: saline with Tween-80
  T/C: 89 % of control
dose: 50.0 mg/kg/injection, schedule: Q01DX001 (ip), vehicle: saline with Tween-80
  T/C: 86 % of control

## COc1cc2c(cc1OC)C1C(C(=O)O)c3ccc(OC)c(OC)c3C(=O)N1CC2 (stereo not drawn)
dose: 50.0 mg/kg/injection, schedule: Q04DX003 (ip), vehicle: distilled water + Tween-80
  T/C: 100 % of control
dose: 100.0 mg/kg/injection, schedule: Q04DX003 (ip), vehicle: distilled water + Tween-80
  T/C: 101 % of control
dose: 200.0 mg/kg/injection, schedule: Q04DX003 (ip), vehicle: distilled water + Tween-80
  T/C: 103 % of control
dose: 400.0 mg/kg/injection, schedule: Q04DX003 (ip), vehicle: distilled water + Tween-80
  T/C: 89 % of control
